Data: US8114904B2, “Luminescence quenchers and fluorogenic probes for detection of reactive species” (Versitech Limited & Morningside Ventures Limited, priority 2008, dated 2012)

Assays:
[1] = Emission spectra of the probe itself; assay type: physicochemical; details: Hitachi F2500, 700 V
Method: (§1) Compound 10 obtained in Example 4 was dissolved in DMF to a concentration of 10 mM, and then the solution was diluted to 10 μM by 0.1 M phosphate buffer (pH 7.4). The fluorescence spectrum of the 10 μM solution of Compound 10 was measured using a Hitachi F2500 fluorescence spectrometer and the photomultiplier voltage was 700 V. The slit width was 2.5 nm for both excitation and emission. The measurement was carried out at an excitation wavelength of 520 nm. The results shown in FIG. 1 indicate that Compound 10 itself is non-fluorescent.
(§2) Compound 12 obtained in Example 5 was dissolved in DMF to a concentration of 1 mM, and then the solution was diluted to 1 μM by 0.1 M phosphate buffer (pH 7.4). The fluorescence spectrum of the 1 μM solution of Compound 12 was measured using a Hitachi F2500 fluorescence spectrometer and the photomultiplier voltage was 700 V. The slit width was 2.5 nm for both excitation and emission. The measurement was carried out at an excitation wavelength of 515 nm. The results shown in FIG. 4 indicate that Compound 12 itself is non-fluorescent.
as §2, with “Compound 14” for “Compound 12”, “Example 6” for “Example 5”, “FIG. 6” for “FIG. 4”
as §1, with “Compound 30” for “Compound 10”, “Example 7” for “Example 4”, “Hitachi F7000” for “Hitachi F2500”, “was 900” for “was 700”, “nm.” for “nm. The results shown in FIG. 1 indicate that Compound 10 itself is non-fluorescent.”

[2] = Detection of peroxynitrite: fluorescence spectra after addition of peroxynitrite
Method: Compound 10 obtained in Example 4 was dissolved in DMF to a concentration of 10 mM, and then the solution was diluted to 10μM by 0.1 M potassium phosphate buffer (pH 7.4). Peroxynitrite solution in 0.1 M NaOH was prepared by the method of Keith and Powell (Keith, W. G. & Powell, R. E.; Kinetics of decomposition of peroxynitrous acid; J. Chem. Soc. A, 1969, 1, 90), and its concentration in the stock solutions used was estimated by using an extinction coefficient of 1670 cm^−1 (mol/L)^−1 at 302 nm (Hughes and Nicklin; The chemistry of pernitrites. Part I. Kinetics of decomposition of pernitrious acid; J. Chem. Soc. A, 1968, 2, 450-452). Peroxynitrite stock solution was added into the solution of Compound 10 to provide various final concentrations, like 0, 2, 6, 10, 20, 30, 50 100, and 200 μM. Fluorescence spectra of the solutions were measured after 5 minutes under the same conditions as mentioned above.
Compound 12 obtained in Example 5 was dissolved in DMF to a concentration of 1 mM, and then the solution was diluted to 1 μM by 0.1 M potassium phosphate buffer (pH 7.4). Peroxynitrite solution in 0.1 M NaOH was prepared by the method of Keith and Powell (Keith, W. G. & Powell, R. E.; Kinetics of decomposition of peroxynitrous acid; J. Chem. Soc. A, 1969, 1, 90), and its concentration in the stock solutions used was estimated by using an extinction coefficient of 1670 cm^−1 (mol/L)^−1 at 302 nm (Hughes and Nicklin; The chemistry of pernitrites. Part I. Kinetics of decomposition of pernitrious acid; J. Chem. Soc. A, 1968, 2, 450-452). Peroxynitrite stock solution was added into the solution of Compound 12 to provide various final concentrations, like 0, 1, 2, 3, 4, 5, 6, and 7 μM. Fluorescence spectra of the solutions were measured after 5 minutes under the same conditions as mentioned above.
Compound 30 obtained in Example 7 was dissolved in DMF to a concentration of 10 mM, and then the solution was diluted to 10 μM by 0.1 M potassium phosphate buffer (pH 7.4). Peroxynitrite solution in 0.1 M NaOH was prepared by the method of Keith and Powell (Keith, W. G. & Powell, R. E.; Kinetics of decomposition of peroxynitrous acid; J. Chem. Soc. A, 1969, 1, 90), and its concentration in the stock solutions used was estimated by using an extinction coefficient of 1670 cm^−1 (mol/L)^−1 at 302 nm (Hughes and Nicklin; The chemistry of pernitrites. Part I. Kinetics of decomposition of pernitrious acid; J. Chem. Soc. A, 1968, 2, 450-452). Peroxynitrite stock solution was added into the solution of Compound 30 to provide various final concentrations. Fluorescence spectra of the solutions were measured after 5 minutes under the same conditions as mentioned above.

[3] = UV-visible absorption spectrum; assay type: physicochemical; details: pH 7.4 0.1 M phosphate buffer, 0.1% DMF
Method: Compound 10 obtained in Example 4 was dissolved in pH 7.4 0.1 M phosphate buffer containing 0.1% DMF as cosolvent to form a 10 μM solution.
Compound 12 obtained in Example 5 was dissolved in pH 7.4 0.1 M phosphate buffer containing 0.1% DMF as cosolvent to form a 1 μM solution.
Compound 14 obtained in Example 6 was dissolved in pH 7.4 0.1 M phosphate buffer containing 0.1% DMF as cosolvent to form a 1 μM solution.
Compound 30 obtained in Example 7 was dissolved in pH 7.4 0.1 M phosphate buffer containing 0.1% DMF as cosolvent to form a 10 μM solution. The absorption spectrum of the 10 μM solution of Compound 30 was measured.

| fluorescence of the probe itself ([1]; 1 μM, 0.1 M phosphate buffer pH 7.4, excitation 515 nm) | absorption maximum ([3]; 1 μM solution) | fluorescence of the probe itself ([1]; 10 μM, 0.1 M phosphate buffer pH 7.4, excitation 520 nm) | absorption maximum ([3]; 10 μM solution) | Compound | fluorescence intensity at 535 nm with increasing concentration of peroxynitrite ([2]; 1 μM probe, 0.1 M potassium phosphate buffer pH 7.4, data not shown) | fluorescence intensity after the addition of peroxynitrite ([2]; 1 μM probe, peroxynitrite 0-7 μM, 0.1 M potassium phosphate buffer pH 7.4, after 5 minutes, excitation 515 nm) | fluorescence intensity at 541 nm with increasing concentration of peroxynitrite ([2]; 10 μM probe, 0.1 M potassium phosphate buffer pH 7.4) | fluorescence intensity after the addition of peroxynitrite ([2]; 10 μM probe, 0.1 M potassium phosphate buffer pH 7.4, measured after 5 minutes, excitation 520 nm) |
| --- | --- | --- | --- | --- | --- | --- | --- | --- |
| non-fluorescent | about 515 nm |  |  | CN(c1ccc(O)cc1)c1ccc2c(c1)Oc1cc(O)ccc1C21OC(=O)c2ccccc21 (centres unmarked) [Compound 12] | increases linearly | increase significantly |  |  |
|  |  | non-fluorescent | about 520 nm | CN(c1ccc(CCC(=O)C(F)(F)F)cc1)c1cc2c(cc1Cl)C1(OC(=O)c3ccccc31)c1cc(Cl)c(O)cc1O2 (centres unmarked) [Compound 10] |  |  | increases linearly | increase significantly |
